# From patent US20020022652A1, “Methylnogarol compositions and uses thereof” (priority 2000, published 2002)
# Read-outs that look alike come from different tables or passages of the source.
# Test system: murine fibrosarcomas (RIF−1 cells)
# Assay type: in vivo
# Settings: for Mean TVQT (± SE): RIF-1 tumors in C3H mice, paclitaxel 10 mg/kg, camptothecin 6 mg/kg, combinations with second agent 30 min after menogaril; for Mean TVQT (± SE) / Mean TVQT ± S.E.: menogaril 50 mg/kg; for Delay: median TVQT of treated group minus median of control; for Delay / TVQT/CTVQT / Median (TVQT): same doses; for Mean TVQT ± S.E.: RIF-1 tumors in female C3H mice, single i.p. injection, cisplatin 4 mg/kg, combination with cisplatin 30 min after menogaril, 4 mice per group
# Method: Transplantable experimental murine fibrosarcomas (2×10^5 RIF−1 cells) were grown intradermally in the flanks of 3 month old female C3H mice (Charles River, Holister, Calif.). When the tumors reached a volume of approximately 100 mm^3, the mice were randomly assigned to each experimental group (4 mice per group).
# The chemopotentiator, menogaril, was obtained from NCI and was made to the appropriate concentration in DMSO. Cisplatin (David Bull Laboratories- Mulgrave, Australia, lot. 5201844x) was made to the appropriate concentration in water for injection. The compositions were injected systemically (i.e., intraperitoneally, i.p.), in a volume of 100 microliters. For the treatment of group 3, the chemopotentiator, menogaril, was injected 30 minutes prior to the injection of cisplatin. After treatment, the growth of the tumors was monitored three times per week by caliper measurements of three perpendicular diameters of the tumor and calculation of tumor volume from the formula: […]
# The tumors were followed until they reached a size of four times their day zero treatment volume (TVQT), or up to 30 days after treatment, whichever came first. The data is expressed as the “tumor volume quadrupling time” (TVQT) mean and as the “delay.” Mean TVQT is the mean days required for individual tumors to grow to four times the tumor volume at the initial treatment day. The “delay” is the median of days required for a tumor to grow to four times the mean size of the treated group, minus the median of days required to grow to four times the mean size of the control group. The data is also expressed as the ratio of the tumor volume quadrupling time of the treated tumor over the untreated control group (TVQT/CTVQT). Increasing values of this ratio indicate increased antitumor response.
# The ability of menogaril to enhance the effect of camptothecin or paclitaxel was also studied, using the same methods described in Example 1. […] For each injection, 100 microliters was injected.
# [1] = Example 2, Table 4, ratio of treated group over untreated control, IP
# [2] = Example 1, Table 3, ratio of TVQT of treated group over untreated control, i.p.
Structure (SMILES),"Mean TVQT (± SE) (Example 2, Table 4, IP) [days]","Delay (Example 2, Table 4, IP)",TVQT/CTVQT [1],"Median (TVQT) (Example 2, Table 4, IP) [days]","Mean TVQT ± S.E. (Example 1, Table 3) [days]","Delay (Example 1, Table 3, i.p.) [days]",TVQT/CTVQT [2],"Median (TVQT) (Example 1, Table 3, i.p.) [days]"
"CC[C@@]1(O)C(=O)OCc2c1cc1n(c2=O)Cc2cc3ccccc3nc2-1 [Camptothecin, camptothecin]",9.9 ± 0.5,1.44,1.1,9.8,–,–,–,–
"N.N.[Cl][Pt][Cl] [Cisplatin, cis-diamminedichloroplatinum II]",–,–,–,–,8.4 ± 0.3,2.10,1.3,8.1
"CO[C@@H]1C[C@](C)(O)Cc2cc3c(c(O)c21)C(=O)c1c(O)cc2c(c1C3=O)O[C@@H]1O[C@@]2(C)[C@H](O)[C@@H](N(C)C)[C@@H]1O [Menogaril, 2,6-Epoxy-2H-naphthaceno[1,2-b]oxocin-9,16-dione, 4-(dimethylamino)-3,4,5,6,11,12,13,14-octahydro-3,5,8,10,13-pentahydroxy-11-methoxy-6,13-dimethyl-,(2alpha,3beta,4alpha,5beta,6alpha, 11 alpha, 13alpha)-, (P)-]",10.2 ± 0.8,1.84,1.2,10.2,9.1 ± 0.5,3.31,1.4,9.4
"CC(=O)O[C@H]1C(=O)[C@@]2(C)[C@H]([C@H](OC(=O)c3ccccc3)[C@]3(O)C[C@H](OC(=O)[C@H](O)[C@@H](NC(=O)c4ccccc4)c4ccccc4)C(C)=C1C3(C)C)[C@]1(OC(C)=O)CO[C@@H]1C[C@@H]2O [Paclitaxel, paclitaxel]",9.0 ± 0.4,0.36,1.0,8.7,–,–,–,–
